Read-outs that look alike come from different tables or passages of the source.
Key:
Jurkat = experiment: Inhibition of cell proliferation, CellTiter-Glo, 72 hour; assay type: cell-based; details: Homo sapiens, Jurkat, 72 h, read-out: Inhibition of Proliferation of Jurkat Cells
Method: The following cancer cell lines were tested with the media conditions indicated: […]

CDK7 = target: T1, CDK7 (Homo sapiens, UniProt P50613); experiment: Adapta kinase assay (Life Technologies) against CDK7, co-factors cyclin H and MNAT1; assay type: biochemical; details: read-out: CDK7 Inhibition
T1 construct: purchased Life Technologies (Adapta kinase assay service)
Method: Compounds of the invention were assayed for activity against CDK7 at Life Technologies™ (Grand Island, N.Y.) using their commercially available Adapta® kinase assay services. […] Details of the assay, including the substrate used for CDK7 kinase, are available on the Life Technologies web site (http://www.lifetechnologies.com/us/en/homellife-science/drug-discovery/target-and-lead-identification-and-validation/kinasebiology/kinase-activity-assays.html).
The co-factors used for the assay were cyclin H and MNAT1.

[1] = Blood cancer cell line, 72 hour

T1 sequence (P50613 whole entry): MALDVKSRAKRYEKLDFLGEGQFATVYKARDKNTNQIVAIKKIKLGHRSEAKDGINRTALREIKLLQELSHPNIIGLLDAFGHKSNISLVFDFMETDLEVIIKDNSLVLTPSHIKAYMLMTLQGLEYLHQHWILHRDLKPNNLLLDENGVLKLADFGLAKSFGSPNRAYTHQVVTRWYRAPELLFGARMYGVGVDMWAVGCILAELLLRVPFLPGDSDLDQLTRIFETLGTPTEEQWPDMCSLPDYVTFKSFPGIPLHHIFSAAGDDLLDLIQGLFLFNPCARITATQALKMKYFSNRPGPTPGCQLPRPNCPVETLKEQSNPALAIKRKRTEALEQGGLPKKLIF
T1 sequence (P51946 whole entry partner): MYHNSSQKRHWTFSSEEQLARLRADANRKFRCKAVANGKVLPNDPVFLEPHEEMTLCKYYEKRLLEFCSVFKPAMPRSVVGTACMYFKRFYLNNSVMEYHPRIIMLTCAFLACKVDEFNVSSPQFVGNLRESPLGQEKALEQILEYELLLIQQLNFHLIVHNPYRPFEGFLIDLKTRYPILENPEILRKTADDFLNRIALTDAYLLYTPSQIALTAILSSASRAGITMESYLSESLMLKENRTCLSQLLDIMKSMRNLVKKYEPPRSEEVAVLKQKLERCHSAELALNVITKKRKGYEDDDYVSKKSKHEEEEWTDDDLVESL
T1 sequence (P51948 whole entry partner): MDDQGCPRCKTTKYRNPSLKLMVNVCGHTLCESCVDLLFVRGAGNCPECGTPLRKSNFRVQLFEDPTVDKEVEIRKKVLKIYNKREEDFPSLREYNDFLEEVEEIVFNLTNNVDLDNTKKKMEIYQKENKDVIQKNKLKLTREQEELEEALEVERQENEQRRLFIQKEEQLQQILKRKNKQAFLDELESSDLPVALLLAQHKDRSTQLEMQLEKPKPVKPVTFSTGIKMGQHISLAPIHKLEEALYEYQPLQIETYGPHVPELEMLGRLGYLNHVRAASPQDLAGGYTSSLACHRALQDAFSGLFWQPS

SMILES | IC50 (Jurkat; [1]) [nM] | IC50 (CDK7) [nM] | IC50 (Jurkat) [nM]
CNC/C=C/C(=O)Nc1ccc(CN2CCC(Nc3ncc(Cl)c(-c4c[nH]c5ccccc45)n3)CC2)cc1 [Compound 142, (E)-N-[4-[[4-[[5-chloro-4-(1H-indol-3-yl)pyrimidin-2-yl]amino]-1-piperidyl]methyl]phenyl]-4-(methylamino)but-2-enamide] | < 500 | < 100 | 
COc1ccc(Cn2c(-c3ccc(NC(=O)/C=C/CN(C)C)cc3)nc3cc(Nc4ncc(Cl)c(-c5c[nH]c6ccccc56)n4)ccc32)cc1 [Compound 133, (E)-N-(4-(5-(5-chloro-4-(1H-indol-3-yl)pyrimidin-2-ylamino)-1-(4-methoxybenzyl)-1H-benzo[d]imidazol-2-yl)phenyl)-4-(dimethylamino)but-2-enamide] | 500 to 5000 | 100 to 1000 | 
Cc1cc(NC(=O)/C=C/CN(C)C)ccc1C(=O)N1CCC(Nc2ncc(Cl)c(-c3c[nH]c4ccccc34)n2)CC1 [Compound 114, (E)-N-(4-(4-(5-chloro-4-(1H-indol-3-yl)pyrimidin-2-ylamino)piperidine-1-carbonyl)-3-methylphenyl)-4-(dimethylamino)but-2-enamide] | < 500 | < 100 | 
C=CC(=O)Nc1ccc(NC(=O)[C@H]2CNCC(Nc3ncc(Cl)c(-c4c[nH]c5ccccc45)n3)C2)cc1 (mixture of isomers) [Compound 154, (+/−trans)-N-(4-acrylamidophenyl)-5-((5-chloro-4-(1H-indol-3-yl)pyrimidin-2-yl)amino)piperidine-3-carboxamide] | < 500 | < 100 | 
N#Cc1cnc(N[C@@H]2CCN(C(=O)c3ccc(NC(=O)/C=C/Cn4ccnc4)cc3)C2)nc1-c1c[nH]c2ccccc12 [Compound 109, (E)-N-(4-((R)-3-(5-cyano-4-(1H-indol-3-yl)pyrimidin-2-ylamino)pyrrolidine-1-carbonyl)phenyl)-4-(1H-imidazol-1-yl)but-2-enamide] |  | < 100 | < 500
Cc1noc(C)c1-c1nc(NC2CCN(C(=O)c3ccc(NC(=O)/C=C/CN(C)C)cc3)CC2)ncc1Cl [Compound 121, (E)-N-(4-(4-((5-chloro-4-(3,5-dimethylisoxazol-4-yl)pyrimidin-2-yl)amino)piperidine-1-carbonyl)phenyl)-4-(dimethylamino)but-2-enamide] | 500 to 5000 | > 1000 | 
CN(C/C=C/C(=O)Nc1ccc(C(=O)N2CC[C@@H](Nc3ncc(C#N)c(-c4c[nH]c5ccccc45)n3)C2)cc1)CCO [Compound 111, (E)-N-(4-((R)-3-(5-cyano-4-(1H-indol-3-yl)pyrimidin-2-ylamino)pyrrolidine-1-carbonyl)phenyl)-4-((2-hydroxyethyl)(methyl)amino)but-2-enamide] | < 500 | < 100 | 
O=C(/C=C/CNC(=O)C(F)(F)F)Nc1ccc(CN2CCC(Nc3ncc(Cl)c(-c4c[nH]c5ccccc45)n3)CC2)cc1 [Compound 156, (E)-N-(4-((4-((5-chloro-4-(1H-indol-3-yl)pyrimidin-2-yl)amino)piperidin-1-yl)methyl)phenyl)-4-(2,2,2-trifluoroacetamido)but-2-enamide] | 500 to 5000 | 100 to 1000 | 
N#Cc1cnc(N[C@@H]2CCN(C(=O)c3ccc(NC(=O)/C=C/CN4CCOCC4)cc3)C2)nc1-c1c[nH]c2ccccc12 [Compound 107, (E)-N-(4-((R)-3-(5-cyano-4-(1H-indol-3-yl)pyrimidin-2-ylamino)pyrrolidine-1-carbonyl)phenyl)-4-morpholinobut-2-enamide] | < 500 | < 100 | 
CN(C)CC=CC(=O)Nc1ccc(C(=O)NC2CNCC(Nc3ncc(Cl)c(-c4c[nH]c5ccccc45)n3)C2)cc1 (racemic) [Compound 149, N-((+/−cis)-5-((5-chloro-4-(1H-indol-3-yl)pyrimidin-2-yl)amino)piperidin-3-yl)-4-((E)-4-(dimethylamino)but-2-enamido)benzamide] | 500 to 5000 | < 100 | 
